# Source: patent US6827949B2, “Wood preservative” (Takeda Chemical Industries, Ltd., priority 2001, dated 2004)
# Tests used:
# [1] = system: worker ants of Coptotermes formosanus; assay: Damage (ingestion) inhibition test (filter paper); assay type: in vivo; design: key: 0: No damage; 1: Damage of ½ or less; 2: Damage of ½ to ¾; 3: Damage of ¾ with some remainder; 4: Complete damage; settings: filter paper immersed in 1 w/w % solution in acetone (hispidin in methanol); 100 worker ants; Control 4
# Description: A 1 w/w % solution of each compound shown in Table 7 in acetone (except for hispidin which was prepared as a 1 w/w % solution in methanol) was prepared.
# In this solution, a No.2 filter paper of 1×1 cm in size was immersed, taken out and then air-dried. It was then placed in a 11-K bottle in which 100 worker ants of Coptotermes formosanus had been kept, and the ingestion behavior was observed. Hispidin employed was a reagent produced by Calbiochem.
# Fomitopsis palustris = assay: Wood-decaying fungal growth inhibition test; assay type: cell-based; design: key: 0: No growth; 1: Fungal growth; settings: filter paper immersed in 5 w/w % acetone solution, placed on Fomitopsis palustris on PDA medium; Control 1
# From the text: A No.2 filter paper of 1×1 cm in size was immersed in the solution, taken out and then air-dried. The filter was then placed on a Fomitopsis palustris which had been cultivated on a PDA medium in a petri dish and observed conditions of fungal growth for 8 weeks.
# [2] = system: spore mixture of Aspergillus niger, Penicillin funculosum, Aureobasidium pullulans and Gliocladium virens; assay: Woodstaining fungal growth inhibition test; assay type: cell-based; design: key: 0: No fungal growth; 1: Fungal growth; settings: filter paper immersed in 5 w/w % acetone solution, sprayed with spore mixture, 2% agar; Control 1
# From the text: In the solution, a No.2 filter paper of 1×1 cm in size was immersed, taken out and then air-dried.
# Aureobasidium pullulans and […]
smiles,measurement,setting,value
COc1ccc(/C=C/c2cc(OC)cc(=O)o2)cc1 [Yangonin],Damage degree after 1 week,[1],1
same,Fungal growth after 8 weeks,Fomitopsis palustris,0
same,Fungal growth after 3 days,[2],0
"COC1=CC(=O)O[C@@H](CCc2ccccc2)C1 [7,8-Dihydrokawain]",Damage degree after 1 week,[1],0
same,Fungal growth after 8 weeks,Fomitopsis palustris,0
same,Fungal growth after 3 days,[2],0
"COC1=CC(=O)O[C@@H](CCc2ccc3c(c2)OCO3)C1 [7,8-Dihydromethysticin]",Damage degree after 1 week,[1],0
same,Fungal growth after 8 weeks,Fomitopsis palustris,0
same,Fungal growth after 3 days,[2],0
COC1=CC(=O)O[C@@H](/C=C/c2ccccc2)C1 [Kawain],Damage degree after 1 week,[1],1
same,Fungal growth after 8 weeks,Fomitopsis palustris,0
same,Fungal growth after 3 days,[2],0
"COc1cc(/C=C/c2ccccc2)oc(=O)c1 [5,6-Dehydrokawain]",Damage degree after 1 week,[1],1
same,Fungal growth after 8 weeks,Fomitopsis palustris,0
same,Fungal growth after 3 days,[2],0
COC1=CC(=O)O[C@@H](/C=C/c2ccc3c(c2)OCO3)C1 [Methysticin],Damage degree after 1 week,[1],0
same,Fungal growth after 8 weeks,Fomitopsis palustris,0
same,Fungal growth after 3 days,[2],0
"O=c1cc(O)cc(/C=C/c2ccc(O)c(O)c2)o1 [Hispidin, reference compound]",Damage degree after 1 week,[1],1
"COC1=CC(=O)OC(CCc2ccc(OC)cc2)C1 (stereo not shown) [5,6,7,8-Tetrahydroyangonin]",Damage degree after 1 week,[1],0
same,Fungal growth after 8 weeks,Fomitopsis palustris,0
same,Fungal growth after 3 days,[2],0
